From ChEMBL document CHEMBL4610122, “Synthesis and Structure-Activity Relationships of DCLK1 Kinase Inhibitors Based on a 5,11-Dihydro-6H-benzo[e]pyrimido[5,4-b][1,4]diazepin-6-one Scaffold” (J Med Chem, 2020) come the findings set out here.

What is called pIC50 is the negative decadic logarithm of the IC50, by convention in mol/L. What is called AUC is concentration integrated over time. Low readings indicate low exposure, high ones high exposure. As a reminder, the clearance is the rate of elimination divided by the concentration.

pIC50: −log10 of the molar value. The source made the active and inactive calls. The rule behind the calls is not given here.

The target of data set [1] is T1, Serine/threonine-protein kinase DCLK1 (Homo sapiens, UniProt O15075).
T1 sequence (O15075 whole entry): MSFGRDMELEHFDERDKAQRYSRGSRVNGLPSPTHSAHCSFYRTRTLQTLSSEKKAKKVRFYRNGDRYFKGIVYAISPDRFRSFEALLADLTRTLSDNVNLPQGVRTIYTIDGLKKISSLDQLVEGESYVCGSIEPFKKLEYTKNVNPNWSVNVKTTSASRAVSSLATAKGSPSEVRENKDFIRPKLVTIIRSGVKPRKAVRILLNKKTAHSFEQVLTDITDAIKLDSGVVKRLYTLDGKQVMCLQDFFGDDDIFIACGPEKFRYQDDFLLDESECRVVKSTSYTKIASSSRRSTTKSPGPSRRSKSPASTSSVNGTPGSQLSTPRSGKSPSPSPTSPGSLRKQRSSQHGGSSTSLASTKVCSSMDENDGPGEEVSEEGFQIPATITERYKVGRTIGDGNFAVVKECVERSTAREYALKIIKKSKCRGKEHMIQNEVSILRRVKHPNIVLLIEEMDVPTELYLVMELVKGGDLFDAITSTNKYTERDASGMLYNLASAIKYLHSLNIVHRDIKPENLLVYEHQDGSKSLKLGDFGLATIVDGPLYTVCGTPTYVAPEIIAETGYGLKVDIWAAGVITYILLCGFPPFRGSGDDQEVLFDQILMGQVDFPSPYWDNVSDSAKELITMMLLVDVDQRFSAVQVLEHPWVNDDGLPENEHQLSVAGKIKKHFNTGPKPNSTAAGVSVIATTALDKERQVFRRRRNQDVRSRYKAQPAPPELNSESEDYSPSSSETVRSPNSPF
Kind of data set: Inhibition of recombinant human N-terminal His6-tagged DCLK1 (G351 to H689 residues) expressed in Escherichia coli BL21 DE3 using 5-FAM-KKLRRTLSVA-COOH as substrate measured after 2 hrs by mobility shift assay.

Data set [2] deals with Leucine-rich repeat serine/threonine-protein kinase 2 (Homo sapiens, UniProt Q5S007). Kind of data set: Inhibition of recombinant human GST-tagged LRRK2 catalytic domain (970 to 2527 residues) expressed in baculovirus expression system using LRRKtide as substrate measured after 1 hr by Alexa fluor-647 ADP tracer-based ADAPTA assay.
In data set [3] the target is Bromodomain-containing protein 4 (Homo sapiens, UniProt O60885). Briefly: Inhibition of BRD4 bromodomain 1 (unknown origin) by AlphaScreen displacement assay. (Alpha assays give light when donor and acceptor beads are brought close together.)
The target in data set [4] is Mitogen-activated protein kinase 7 (Homo sapiens, UniProt Q13164). Kind of data set: Inhibition of ERK5 in human HeLa cells assessed as reduction in EGF-induced ERK5 autophosphorylation pretreated for 1 hr followed by EGF stimulation and measured after 17 mins by […]. It is filed as cell-based.
The species entered for data set [5] is Homo sapiens. Briefly: Cytotoxicity against human Panc286 cell organoids assessed as reduction in cell viability up to 1 uM measured after 4 days. It is filed as functional.
The nature of data set [6]: AUC in mouse. It is filed as ADME, organism-based. The following applies: in vivo.
The nature of data set [7]: Cytotoxicity against human Panc281 cell organoids assessed as reduction in cell viability at 1 uM measured after 12 days relative to control. It counts as functional.
Data set [8] in a line: Clearance in mouse. It is filed as ADME, organism-based. Particulars: in vivo.
Data set [9] in a line: Half life in mouse. It is filed as ADME, organism-based. Particulars: in vivo.
Data set [10] in a line: Cytotoxicity against human Panc286 cell organoids assessed as reduction in cell viability at 1 uM measured after 12 days relative to control. It is filed as functional.
Data set [11] is filed under the species Homo sapiens. Briefly: Cytotoxicity against human Panc281 cell organoids assessed as reduction in cell viability up to 1 uM measured after 4 days. It counts as functional.

Leucine-rich repeat serine/threonine-protein kinase 2, sequence (Q5S007 whole entry, the tested form may be a part): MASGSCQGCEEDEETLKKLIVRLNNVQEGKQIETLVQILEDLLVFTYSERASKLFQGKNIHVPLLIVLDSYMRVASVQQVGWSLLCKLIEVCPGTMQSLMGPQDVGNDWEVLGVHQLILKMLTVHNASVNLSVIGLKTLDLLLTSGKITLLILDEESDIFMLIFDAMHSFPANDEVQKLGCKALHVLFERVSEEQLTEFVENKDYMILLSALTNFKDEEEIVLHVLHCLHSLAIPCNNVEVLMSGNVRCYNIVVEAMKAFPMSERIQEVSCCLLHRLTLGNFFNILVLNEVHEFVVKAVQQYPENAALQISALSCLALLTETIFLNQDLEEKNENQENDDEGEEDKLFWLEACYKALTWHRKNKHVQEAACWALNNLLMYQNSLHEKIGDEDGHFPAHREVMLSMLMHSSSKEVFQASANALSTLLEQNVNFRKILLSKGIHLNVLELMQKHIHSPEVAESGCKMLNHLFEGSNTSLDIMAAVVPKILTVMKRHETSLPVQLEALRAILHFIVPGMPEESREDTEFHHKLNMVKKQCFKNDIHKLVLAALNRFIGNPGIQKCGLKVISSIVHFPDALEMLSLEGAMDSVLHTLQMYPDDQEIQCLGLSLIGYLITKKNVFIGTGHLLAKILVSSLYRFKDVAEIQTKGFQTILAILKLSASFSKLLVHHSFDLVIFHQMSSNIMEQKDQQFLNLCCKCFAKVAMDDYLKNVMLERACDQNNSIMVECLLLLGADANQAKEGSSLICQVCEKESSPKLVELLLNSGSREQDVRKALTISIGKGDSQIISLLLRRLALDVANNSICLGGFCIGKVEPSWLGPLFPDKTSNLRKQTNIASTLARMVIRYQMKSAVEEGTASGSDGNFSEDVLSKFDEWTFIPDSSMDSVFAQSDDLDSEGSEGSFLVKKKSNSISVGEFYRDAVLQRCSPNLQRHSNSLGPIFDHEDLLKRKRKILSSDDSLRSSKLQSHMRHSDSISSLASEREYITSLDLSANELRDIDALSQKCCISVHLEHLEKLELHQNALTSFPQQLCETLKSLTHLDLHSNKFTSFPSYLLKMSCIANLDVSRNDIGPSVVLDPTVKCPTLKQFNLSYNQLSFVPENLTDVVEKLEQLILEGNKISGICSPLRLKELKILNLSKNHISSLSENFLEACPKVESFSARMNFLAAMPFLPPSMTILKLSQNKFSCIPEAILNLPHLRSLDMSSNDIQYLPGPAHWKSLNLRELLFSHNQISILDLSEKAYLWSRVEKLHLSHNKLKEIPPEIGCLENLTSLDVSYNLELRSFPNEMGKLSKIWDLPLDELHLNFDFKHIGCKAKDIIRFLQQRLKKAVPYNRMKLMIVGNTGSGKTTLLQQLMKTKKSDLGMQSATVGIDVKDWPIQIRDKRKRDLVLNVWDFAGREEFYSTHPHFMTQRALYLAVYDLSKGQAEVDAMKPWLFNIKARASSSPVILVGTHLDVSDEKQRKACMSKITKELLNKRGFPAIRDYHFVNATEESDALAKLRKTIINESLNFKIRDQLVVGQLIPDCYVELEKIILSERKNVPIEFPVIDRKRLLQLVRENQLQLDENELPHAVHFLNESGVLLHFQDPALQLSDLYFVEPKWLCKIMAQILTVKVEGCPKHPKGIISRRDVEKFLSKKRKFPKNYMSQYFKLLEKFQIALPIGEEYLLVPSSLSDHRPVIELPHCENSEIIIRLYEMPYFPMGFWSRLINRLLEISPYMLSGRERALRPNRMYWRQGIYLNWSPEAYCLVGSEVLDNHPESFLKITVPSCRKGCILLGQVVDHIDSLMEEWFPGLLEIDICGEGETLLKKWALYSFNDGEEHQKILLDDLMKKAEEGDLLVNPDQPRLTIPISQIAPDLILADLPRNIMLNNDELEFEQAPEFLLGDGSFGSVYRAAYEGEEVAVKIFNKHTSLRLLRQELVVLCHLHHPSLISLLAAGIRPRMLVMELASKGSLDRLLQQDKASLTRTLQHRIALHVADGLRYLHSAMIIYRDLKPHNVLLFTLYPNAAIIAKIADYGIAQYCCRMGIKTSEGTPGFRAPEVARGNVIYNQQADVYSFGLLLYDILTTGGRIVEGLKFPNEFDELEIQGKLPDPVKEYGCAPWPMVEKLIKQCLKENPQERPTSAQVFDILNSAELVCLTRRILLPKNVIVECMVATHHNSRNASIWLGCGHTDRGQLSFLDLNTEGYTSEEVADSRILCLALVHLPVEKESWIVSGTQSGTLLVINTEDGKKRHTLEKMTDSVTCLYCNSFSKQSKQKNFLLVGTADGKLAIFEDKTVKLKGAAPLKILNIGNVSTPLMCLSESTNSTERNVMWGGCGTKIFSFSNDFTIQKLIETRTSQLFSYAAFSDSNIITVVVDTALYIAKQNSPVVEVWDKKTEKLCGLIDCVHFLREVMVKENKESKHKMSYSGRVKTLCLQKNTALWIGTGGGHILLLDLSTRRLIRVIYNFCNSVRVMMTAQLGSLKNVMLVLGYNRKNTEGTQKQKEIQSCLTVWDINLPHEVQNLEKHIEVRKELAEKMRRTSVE
Mitogen-activated protein kinase 7, sequence (Q13164 whole entry): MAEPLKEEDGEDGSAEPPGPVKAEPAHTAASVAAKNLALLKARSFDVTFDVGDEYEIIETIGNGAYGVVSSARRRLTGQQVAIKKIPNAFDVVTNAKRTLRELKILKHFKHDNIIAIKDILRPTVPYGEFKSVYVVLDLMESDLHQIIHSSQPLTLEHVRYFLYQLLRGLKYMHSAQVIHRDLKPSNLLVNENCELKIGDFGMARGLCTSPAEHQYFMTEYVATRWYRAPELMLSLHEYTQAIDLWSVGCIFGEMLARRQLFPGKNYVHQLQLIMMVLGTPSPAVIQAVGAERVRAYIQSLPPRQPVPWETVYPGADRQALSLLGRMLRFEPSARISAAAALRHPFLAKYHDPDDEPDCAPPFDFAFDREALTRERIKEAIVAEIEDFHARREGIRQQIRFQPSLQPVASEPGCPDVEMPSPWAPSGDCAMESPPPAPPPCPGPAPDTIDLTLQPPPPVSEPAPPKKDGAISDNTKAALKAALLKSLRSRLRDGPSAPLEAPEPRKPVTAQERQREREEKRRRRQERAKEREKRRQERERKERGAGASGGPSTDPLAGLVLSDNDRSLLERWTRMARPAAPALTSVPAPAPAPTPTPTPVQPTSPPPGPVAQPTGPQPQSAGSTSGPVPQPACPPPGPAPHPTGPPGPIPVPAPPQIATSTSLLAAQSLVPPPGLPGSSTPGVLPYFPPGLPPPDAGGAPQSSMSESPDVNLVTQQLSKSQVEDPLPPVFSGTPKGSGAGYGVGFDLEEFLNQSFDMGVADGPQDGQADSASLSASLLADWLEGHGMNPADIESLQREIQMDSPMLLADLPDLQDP

Consider `COc1cc(N2CCN(C)CC2)ccc1Nc1ncc2c(n1)N(Cc1ccccc1)c1ccccc1C(=O)N2C`, for which the pIC50 in data set [1] was 8.40; in data set [2], 6.85.
In the case of `COc1cc(N2CCN(C)CC2)ccc1Nc1ncc2c(n1)N(C)c1cc(Cl)ccc1C(=O)N2C`, the pIC50 in data set [1] is less than 5.70; in data set [2], 5.43.
`CN1C(=O)c2ccccc2N(C)c2nc(Nc3ccc(NS(C)(=O)=O)cc3)ncc21`: in [1], the pIC50 is 8.70.
Consider `CCN1C(=O)c2ccccc2N(C)c2nc(Nc3ccc(N4CCN(C)CC4)cc3OC)ncc21`, for which the pIC50 in data set [3] is 6.08; in data set [1] it was 8.52; in data set [2], 7.21; in data set [4] it was 5.92.
Regarding `COc1cc(N2CCN(C3CCN(C)CC3)CC2)ccc1Nc1ncc2c(n1)N(C)c1ccccc1C(=O)N2C`, the pIC50 in data set [1] was 6.98; in data set [2] it was 7.80.
For `Cc1cc(N2CCC(O)CC2)ccc1Nc1ncc2c(n1)N(C)c1ccccc1C(=O)N2C`, in that order: 7.43 and 7.46.
On to `COc1cc(N2CCN(C)CC2)ccc1Nc1ncc2c(n1)N(C1CCC1)c1ccccc1C(=O)N2C`, for which the pIC50 in data set [1] is 7.85; in data set [2] it was 7.01; in data set [4], 7.10.
As for `COc1cc(NS(C)(=O)=O)ccc1Nc1ncc2c(n1)N(C)c1ccccc1C(=O)N2CC(F)(F)F`, the pIC50 in [3] was less than 5.00; in data set [1], 7.10; in data set [2], 5.05.
For the compound `COc1cc(N2CCN(C)CC2)ccc1Nc1ncc2c(n1)N(C)c1ccccc1C(=O)N2C(C)C`, the pIC50 was 5.92 in [3], 6.39 in [1] and 5.72 in data set [2].
As for `COc1cc(N2CCN(C)CC2)ccc1Nc1ncc2c(n1)N(C)c1ccccc1C(=O)N2CC(F)(F)F`, the result in the data set listed under Homo sapiens [5] and in the data set filed under Homo sapiens [11] was inactive. In addition, the pIC50 in [3] was less than 5.00; in data set [1], 7.77; in [2], 5.15; in data set [4] (hela) it was 5.47. The compound also showed an AUC in data set [6] of 1270 ng·h/mL. Also, the Activity result in data set [7] and in [10] was “>=50 - 90%” each time. This compound came in with a clearance in data set [8] of 26.3 mL/min/kg. The t1/2 in data set [9] was 2.09 h.
For `CCN1C(=O)c2ccccc2N(C)c2nc(Nc3ccc(NS(C)(=O)=O)cc3OC)ncc21`, the pIC50 in data set [3] is 5.34; in [1] it was 7.44; in [2], 7.64.
`COc1cc(C(=O)N2CCN(C3CCN(C)CC3)CC2)ccc1Nc1ncc2c(n1)N(C)c1ccccc1C(=O)N2C`: in data set [2], the pIC50 was 8.30.
For `COc1cc(N2CCNCC2)ccc1Nc1ncc2c(n1)N(C)c1ccccc1C(=O)N2C`, the pIC50 in [1] is 7.28; in data set [2], 7.64.
As to `COc1cc(N2CCN(C)CC2)ccc1Nc1ncc2c(n1)N(C)c1ccc(C)cc1C(=O)N2C`, the pIC50 in data set [1] is less than 5.70; in data set [2] it was 6.03.
For the compound `CCN1C(=O)c2ccccc2N(C)c2nc(Nc3ccc(C(=O)NC4CCN(C)CC4)cc3OC)ncc21`, the pIC50 in data set [3] was 6.28; in [1], 8.70; in data set [2] it was 7.85; in data set [4], 6.32.
In the case of `COc1cc(C(=O)NC2CCN(C)CC2)ccc1Nc1ncc2c(n1)N(C)c1ccccc1C(=O)N2C`, the values for the pIC50 in data set [3], in data set [1] and in [2] were 5.38, 8.40 to 9.00 and 7.74 to 8.09, respectively.
Turning to `COc1cc(N2CCOCC2)ccc1Nc1ncc2c(n1)N(C)c1ccccc1C(=O)N2C`, the pIC50 is 7.96 in [1] and 7.51 in [2].
Take `CCN1c2ccccc2C(=O)N(C)c2cnc(Nc3ccc(N4CCN(C)CC4)cc3OC)nc21`: the pIC50 was 6.81 in [1] and 7.24 in [2].
`CCOc1cc(N2CCC(O)CC2)ccc1Nc1ncc2c(n1)N(C)c1ccccc1C(=O)N2C`: the pIC50 in data set [1] is 6.15; in [2], 7.34.
`COc1cc(NS(C)(=O)=O)ccc1Nc1ncc2c(n1)N(C)c1ccccc1C(=O)N2C`: the pIC50 in data set [3] is 6.90; in data set [1], 7.80 to 8.52; in [2], 8.22 to 8.23; in data set [4], 6.56.
For `COc1cc(N2CCN(C)CC2)ccc1Nc1ncc2c(n1)N(C)c1ccc(C)cc1C(=O)N2CC(F)(F)F`, in data set [1], the pIC50 is less than 5.30.
As to `COc1cc(N2CCN(C)CC2)ccc1Nc1ncc2c(n1)N(C)c1ccccc1C(=O)N2`, the pIC50 in data set [3] is less than 5.00; in data set [1] it was less than 6.00; in data set [2], 7.15; in data set [4] it was 5.92.
With `COc1cc(C(=O)NC2CCN(C)CC2)ccc1Nc1ncc2c(n1)N(C)c1ccccc1C(=O)N2CC(F)(F)F`, the values for the pIC50 in data set [3], in data set [1] and in [2] were 5.80, 8.00 and 6.42, respectively.
Consider `CN1C(=O)c2ccccc2N(C)c2nc(Nc3ccc(N4CCC(O)CC4)cc3)ncc21`, for which the pIC50 in [1] was 6.96; in [2], 7.52.
As to `COc1cc(N2CCN(C)CC2)ccc1Nc1nc(C)c2c(n1)N(C)c1ccccc1C(=O)N2C`, the figures for the pIC50 in data set [1], in data set [2] and in [4] were less than 5.70, 6.30 and less than 5.00, respectively.
`CN1C(=O)c2ccccc2N(C)c2nc(Nc3cccc(S(N)(=O)=O)c3)ncc21`: the pIC50 in data set [1] is 6.95; in data set [2] it was 8.21.
`CC(C)Oc1cc(N2CCC(O)CC2)ccc1Nc1ncc2c(n1)N(C)c1ccccc1C(=O)N2C`: the figures for the pIC50 in data set [1] and in data set [2] were 6.29 and 6.80, respectively.
Turning to `COc1cc(N2CCC(O)CC2)ccc1Nc1ncc2c(n1)N(C)c1ccccc1C(=O)N2C`, the pIC50 was 7.01 in data set [1] and 7.85 in data set [2].
Take `CCOc1cc(C(=O)N2CCC(N3CCN(C)CC3)CC2)ccc1Nc1ncc2c(n1)N(C1CCCC1)c1ccccc1C(=O)N2C`: the pIC50 in data set [1] is 7.66; in data set [2] it was 6.77.
As for `COc1cc(N2CCN(C)CC2)ccc1Nc1ncc2c(n1)N(C)c1ccc(Cl)cc1C(=O)N2C`, the figures for the pIC50 in [1] and in data set [2] were less than 5.70 and 5.88, respectively.
For `CN1C(=O)c2ccccc2N(C)c2nc(Nc3ccc(S(N)(=O)=O)cc3)ncc21`, in that order: 6.73 and 8.15.
In the case of `CC(C)Oc1cc(N2CCN(C)CC2)ccc1Nc1ncc2c(n1)N(C)c1ccccc1C(=O)N2CC(F)(F)F`, the pIC50 in [1] is 6.67.
Turning to `COc1cc(N2CCN(C)CC2)ccc1Nc1ncc2c(n1)N(C1CCCC1)c1ccccc1C(=O)N2C`, the pIC50 in data set [1] was 7.59; in data set [2], 6.38.
For the compound `COc1cc(C(=O)NC2CCN(C)CC2)ccc1Nc1ncc2c(n1)N(C)c1ccccc1C(=O)N2C(C)C`, the pIC50 in data set [3] was 5.62; in data set [1] it was 6.90; in data set [2], 6.48.
In the case of `CCC(C)N1c2ccccc2C(=O)N(C)c2cnc(Nc3ccc(N4CCN(C)CC4)cc3OC)nc21` (stereo not given), the pIC50 in [1] was 7.49; in data set [2], 6.13; in [4], 6.65.
On to `COc1cc(NS(C)(=O)=O)ccc1Nc1ncc2c(n1)N(C)c1ccccc1C(=O)N2C(C)C`, for which the results for the pIC50 in [3], in data set [1] and in data set [2] were 5.13, less than 6.00 and 6.17, respectively.
As to `COc1cc(N2CCN(C)CC2)ccc1Nc1ncc2c(n1)N(C(C)C)c1ccccc1C(=O)N2C`, the results for the pIC50 in data set [1] and in data set [2] were 7.15 and 6.54, respectively.
For the compound `COc1cc(N2CCN(C)CC2)ccc1Nc1ncc2c(n1)N(C)c1ccccc1C(=O)N2C`, the pIC50 in [3] is 6.05; in data set [1], 7.80 to 7.96; in [2] it was 7.54.
